In US11690828B2, “Treatment of CNS diseases with sGC stimulators” (Cyclerion Therapeutics, Inc., priority 2016, dated 2023):

Columns and labels:
sGC = assay: cGMP neuronal cell-based assay; settings: rat primary hippocampal neurons; 30 μM DETA-NO; 50% of high control (10 μM Compound Y); read-out: sGC-neuron Abs EC50
Experimental: Rat primary neurons were isolated from fetuses of 18-day pregnant Sprague-Dawley females. The fetuses were collected in Hanks' balanced salt solution (HBSS) and brains were rapidly removed. The cerebral hippocampi were isolated and mechanically fragmented. Further tissue digestion was performed with 0.25% (wt/vol) trypsin solution in HBSS without Ca2+ and Mg2+ for 15 min at 37° C. After trypsination, cells were washed and resuspended in neurobasal medium supplemented with 0.5 mM L-glutamine, 12.5 uM glutamic acid, 2% B-27 and 100 U/mL penicillin, and 100 μg/mL streptomycin. Cells were plated at a density of 4×10^4 cells/well in a poly-D-lysine coated 384-well flat clear-bottom plate (Corning Cat No 354662). Cells were incubated 6-7 days at 37° C. in a humidified chamber with 5% CO2. Media was removed and cells were washed 1× with HBSS containing Ca2+ and Mg2+, and replaced with 40 uL HBSS containing 0.5 mM IBMX, and incubated for 15 minutes at 37° C. 10 uL of a 5× stock of test compounds with diethylenetriamine NONOate (DETA-NO) was added. Final concentration of DETA-NO was 30 μM. Cells were incubated for 20 min at 37° C. Medium was removed, 50 uL of ice-cold 10% acetic acid was added, and incubated for 60 minutes at 4° C. Following centrifugation at 4° C. for 5 minutes at 1000×g to pellet cell debris, the supernatant was aspirated to a clean plate and the samples were analyzed for cGMP content. cGMP concentrations were determined from each sample using LC-MS/MS.
Data were normalized to a high control using the following equation: 100*(Sample−Low Control)/(High Control−Low Control), where the low control is the average of 15 samples treated with 1% DMSO, and the high control is the average of 15 samples treated with 10 μM of the known sGC stimulator Compound Y (depicted in Example 2). Data were fit using a 4-parameter fit (log(agonist) vs. response—variable slope) using GraphPad Prism Software v.5. n=2 for all compounds. […]

[1] = Rat cerebrospinal fluid (CSF) pharmacokinetic properties; assay type: in vivo; settings: male, Sprague-Dawley; for concentration at 1 h: CSF, PO 10 mg/kg in PEG400, 1 h post-dosing, read-out: CSF Conc (nM @ 1 h); for Kp uu at 1 h: PO 10 mg/kg, unbound CSF / unbound plasma
Experimental: PK in rats was determined following oral dosing. For the oral (PO) experiments, a group of 6 male Sprague-Dawley rats with an indwelling catheter placed in the cisterna magna were used. The PO group was dosed with 3 or 10 mg/kg of a compound formulated as a solution in PEG400. PO doses were administered by oral gavage and delivered to the stomach using a syringe and gavage tube. Following oral dosage administration, the gavage tube was flushed with approximately 0.5 mL of water to ensure complete delivery of the full dose.
Plasma and CSF samples were collected as follows: samples of CSF and blood were collected at 1 hour and 2 hours post-dosing. CSF samples (0.05 mL) were collected through the intracisternal catheter. Blood samples (0.25 mL) were collected through retro-orbital sampling. These samples were kept on ice until processed for plasma. Blood samples were centrifuged at 3200 rpm for 5 minutes at approximately 5° C. within 1 hour of collection. Plasma was directly transferred to a 96-well plate tube (0.125 mL). Plug caps were placed on the tubes and the tubes frozen at approximately −70° C. and stored until analysis.
Plasma was collected and analyzed for the presence of compound.
The compound in question and the internal standard were extracted from plasma and CSF by precipitation. Samples were analyzed using liquid chromatography (LC) with tandem mass spectrometric detection (MS/MS) using electrospray ionization. The standard curve range was from 1 to 1000 ng/mL.
Kp,uu is defined as the concentration ratio of unbound drug in CSF to unbound drug in plasma. Unbound drug in plasma (or free plasma concentration) is calculated by multiplying the total plasma concentration by the unbound fraction as determined by plasma protein binding. The CSF concentration is then divided by the free plasma concentration to determine the Kp,uu. (See e.g., Di et al., J. Med. Chem., 56, 2-12 (2013)).

male Long Evans rats = assay: Novel Object Recognition (NOR) test, MK-801-induced memory deficit; assay type: in vivo, rat
rats = assay: TNBS - colorectal distension; assay type: in vivo, rat; settings: Compound I-2 p.o. 10 mg/kg; 120 minutes after treatment
Experimental: TNBS. Surgery: Colonic sensitivity was induced by surgical administration of TNBS seven days before behavioral testing (D−7). Fasted (overnight) animals underwent surgery. Briefly, under anesthesia (Xylazine 10 mg/kg i.p., ketamine 60 mg/kg i.p.), injection of TNBS (50 mg/kg, 1 mL/kg) was performed into the proximal part of the colon (1 cm from the caecum). After surgery, animals returned in their home cages in a regulated environment, and were fed ad libitum until D−1 (animals were fasted 24 hours before distention). Colorectal distension: Seven days (D0) after TNBS injection, colonic sensitivity was assessed on fasted (overnight) animals by measuring the intra-colonic pressure required to induce a behavioral response during colonic distension. To perform distension, a 5-cm balloon was gently inserted into the colon of vigil animals at 10 cm from the anus and the catheter was taped to the base of the tail. […] Pain behavior was characterized by an elevation of the hind part of the animals body and a clearly visible abdominal contraction corresponding to a severe cramp. Two determinations were performed.
Testing: 120 minutes after treatment. N=4/model/test. Results are expressed for each group as a percentage of activity calculated from the mean value of the vehicle-treated animals and compared to naïve animals, control paw, or cut-off value, depending on the test.

[2] = I-2 0.1 mg/kg, compared to Vehicle/MK-801 group

Row | EC50 (sGC) [nM] | concentration at 1 h [1] [nM] | Kp uu at 1 h [1] | SMILES | Recognition Index, Mean (0 to 3 minute time bin) (male Long Evans rats; I-2 0.1 mg/kg oral + MK-801 0.1 mg/kg IP) [%] | Reversal of MK-801-induced memory deficits, 0-3 minute time range (male Long Evans rats; [2]) | Reversal of MK-801-induced memory deficits, 0-5 minute time range (male Long Evans rats; [2]) | Recognition Index, Mean (0 to 3 minute time bin) (male Long Evans rats; I-2 1 mg/kg oral + MK-801 0.1 mg/kg IP) [%] | Recognition Index, Mean (0 to 3 minute time bin) (male Long Evans rats; I-2 10 mg/kg oral + MK-801 0.1 mg/kg IP) [%] | % of activity vs. vehicle, TNBS colorectal distension (rats) [%]
1 | ≤ 100 | 62.9 | 3.16 | Fc1ccccc1Cn1nc(-c2nc(C(F)(F)F)n[nH]2)c2cccnc21 [Compound I-2] | 68.21 | significantly reversed | significantly reversed | 63.98 | 61.76 | 43
2 | ≤ 100 | 446 | 3.26 | FC(F)(F)c1n[nH]c(-c2nc(Cc3cncnc3)c3ccccn23)n1 [Compound I-5] |  |  |  |  |  | 
